Values quoted from earlier work in patent publication US8426470B2, “Method for alleviating signs and symptoms of spasticity” (Sun Pharmaceutical Industries Ltd., priority 2006, dated 2013).

Key:
spasticity = conditions: in vivo

NCC(CC(=O)O)c1ccc(Cl)cc1 (centres unmarked) [Baclofen, 4-amino-3-(4-chlorophenyl)-butanoic acid]
Plasma elimination half-life (in vivo): approximately 3.5 hours
concentrations in the cerebrospinal fluid (CSF) relative to those in the plasma (in vivo): about 12%
elimination half-life from the CSF (in vivo): 4 to 5 h
fraction metabolized in the liver (remainder excreted mainly by the kidneys in unchanged form): 15%
lowest concentration in plasma at which a significant reduction in spasticity was observed (spasticity): 90 ng/mL
